According to ChEMBL document CHEMBL1201862, “PubChem BioAssay data set” (2004):
The source made the active and inactive calls.

Key:
Prothrombin = Prothrombin (Homo sapiens, UniProt P00734); assay: Thrombin 1536 HTS Dose Response Confirmation. [Related pubchem assays: 1046 (Thrombin 1536 HTS; hits were confirmed in this assay)]; assay type: functional
[1] = biological target: T1, Heat shock factor protein 1 (Mus musculus, UniProt P38532); assay: decrease of HSF1-responsive luciferase luminescence – cell-based, NIH3T3, dose retest, confirmation (AID 2382); assay type: functional;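 also: NIH3T3 fibroblasts with HSF1-driven luciferase reporter stressed by proteasome inhibitor MG132; luminescence from HSF1-driven luciferase expression after 8 hours of MG132 stress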
T1 sequence (P38532 whole entry): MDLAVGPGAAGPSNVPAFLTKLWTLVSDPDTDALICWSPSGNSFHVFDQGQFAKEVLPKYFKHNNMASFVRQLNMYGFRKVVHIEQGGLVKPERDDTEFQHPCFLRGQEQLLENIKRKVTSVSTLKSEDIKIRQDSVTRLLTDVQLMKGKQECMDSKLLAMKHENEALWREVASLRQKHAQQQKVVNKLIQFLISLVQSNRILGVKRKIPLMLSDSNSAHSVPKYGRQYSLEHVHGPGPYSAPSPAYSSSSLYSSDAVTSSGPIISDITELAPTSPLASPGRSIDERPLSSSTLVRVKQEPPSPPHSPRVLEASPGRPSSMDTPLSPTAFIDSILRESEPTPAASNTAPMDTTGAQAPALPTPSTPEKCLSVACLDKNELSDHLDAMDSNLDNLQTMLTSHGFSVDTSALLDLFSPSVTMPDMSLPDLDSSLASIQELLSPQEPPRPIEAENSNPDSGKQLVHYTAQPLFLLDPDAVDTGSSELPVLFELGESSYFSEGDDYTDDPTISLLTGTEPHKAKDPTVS

Cytochrome P450 2C9 = Cytochrome P450 2C9 (Homo sapiens, UniProt P11712)
[2] = Luminescence Cell-Based Dose Confirmation HTS to Identify Activators of 5'UTR Stem-Loop Driven Alpha-Synuclein mRNA Translation in H4 Neuroglioblastoma Cells. [Related pubchem assays: 1829 (Project Summary), 1814 (Primary HTS)]; assay type: functional
[3] = Luminescence Cell-Based Dose Response HTS to Identify Activators of Luciferase Translation or Activity in H4 […] Cells. [Related pubchem assays: 1829 (Project Summary), 1814 (Primary HTS)]; assay type: functional
H4 = assay: Luminescence Cell-Based Dose Response HTS to Identify Activators of 5'UTR Stem-Loop Driven Prion Protein mRNA Translation in H4 Neuroglioblastoma Cells. [Related pubchem assays: 1829 (Project Summary), 1814 (Primary HTS)]; assay type: functional; conditions: Homo sapiens
[4] = biological target: Glyceraldehyde-3-phosphate dehydrogenase (Homo sapiens, UniProt P04406)
[5] = biological target: DNA dC->dU-editing enzyme APOBEC-3A (Homo sapiens, UniProt P31941); assay: Dose Response confirmation of small molecule APOBEC3A DNA Deaminase Inhibitors via a fluorescence-based single-stranded DNA deaminase assay. [Related pubchem assays (depositor defined):AID493011, AID493024]; assay type: functional
[6] = biological target: T2, DNA dC->dU-editing enzyme APOBEC-3G (Homo sapiens, UniProt Q9HC16); assay type: functional
[7] = biological target: T2, DNA dC->dU-editing enzyme APOBEC-3G; assay: Dose Response confirmation of small molecule APOBEC3G DNA Deaminase Inhibitors via a fluorescence-based single-stranded DNA deaminase assay. [Related pubchem assays (depositor defined):AID493012, AID493028]; assay type: functional
[8] = A cytotoxicity screen of small molecule inhibitors of the PhoP region in Salmonella typhi identified in the primary screen. [Related pubchem assays: 1850, 1864, 1985 ]; assay type: functional
[9] = biological target: Induced myeloid leukemia cell differentiation protein Mcl-1 (Homo sapiens, UniProt Q07820); assay type: functional
Caspase-6 = biological target: T3, Caspase-6 (Homo sapiens, UniProt P55212); assay: inhibition of CASP6 peptide cleavage – biochemical, VEID-R110 fluorescence, cherry-pick, dose response (AID 720632)
T3 sequence (P55212 whole entry): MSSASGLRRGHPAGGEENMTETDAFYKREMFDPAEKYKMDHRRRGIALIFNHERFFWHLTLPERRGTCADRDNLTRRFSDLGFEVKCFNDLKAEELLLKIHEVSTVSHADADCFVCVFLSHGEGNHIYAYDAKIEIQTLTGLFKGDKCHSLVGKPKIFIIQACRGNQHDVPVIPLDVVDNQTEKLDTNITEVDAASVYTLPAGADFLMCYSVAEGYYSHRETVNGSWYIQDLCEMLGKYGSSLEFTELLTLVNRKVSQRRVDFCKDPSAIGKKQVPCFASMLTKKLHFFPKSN

[10] = biological target: T4, Carboxy-terminal domain RNA polymerase II polypeptide A small phosphatase 1 (Homo sapiens, UniProt Q9GZU7); assay: CTDSP1 inhibitors, concentration-response, biochemical, absorbance readout, ultra-high-throughput screen actives (AID 540297); assay type: functional
T4 sequence (Q9GZU7 whole entry): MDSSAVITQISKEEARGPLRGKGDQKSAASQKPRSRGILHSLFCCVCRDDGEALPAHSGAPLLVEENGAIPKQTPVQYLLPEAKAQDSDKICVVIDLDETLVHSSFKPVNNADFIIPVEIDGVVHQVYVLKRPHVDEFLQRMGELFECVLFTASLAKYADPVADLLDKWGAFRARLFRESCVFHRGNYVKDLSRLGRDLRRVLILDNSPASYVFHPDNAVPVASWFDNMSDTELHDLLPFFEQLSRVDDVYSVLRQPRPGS

[11] = Luminescence Cell-Based Dose Confirmation HTS to Identify Inhibitors of Platelet Dense Granule Release. [Related pubchem assays: 1663 (Primary HTS), 1678 (Summary of Project)]; assay type: functional
[12] = biological target: Luciferin 4-monooxygenase (Photinus pyralis, UniProt P08659); assay: inhibition of purified Photinus pyralis luciferase – biochemical, luminescence, dose response (AID 1891)
HEK293 = assay: EBV LMP1 TES2 canonical NF-kB signalling blockers – cell-based, HEK293, luciferase, cherry-pick, dose response (AID 588343); assay type: functional; conditions: Homo sapiens

T2 sequence (Q9HC16 whole entry): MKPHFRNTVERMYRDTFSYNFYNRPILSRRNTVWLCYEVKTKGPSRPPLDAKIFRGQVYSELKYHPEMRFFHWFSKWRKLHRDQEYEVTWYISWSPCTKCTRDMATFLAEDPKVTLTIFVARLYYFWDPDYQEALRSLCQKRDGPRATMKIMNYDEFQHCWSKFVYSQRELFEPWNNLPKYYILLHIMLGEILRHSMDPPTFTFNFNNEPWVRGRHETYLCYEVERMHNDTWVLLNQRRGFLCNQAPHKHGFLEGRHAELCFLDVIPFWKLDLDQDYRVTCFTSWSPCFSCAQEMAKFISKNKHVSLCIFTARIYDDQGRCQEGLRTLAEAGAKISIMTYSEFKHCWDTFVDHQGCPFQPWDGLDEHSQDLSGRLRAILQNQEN
DNA dC->dU-editing enzyme APOBEC-3A, sequence (P31941 whole entry): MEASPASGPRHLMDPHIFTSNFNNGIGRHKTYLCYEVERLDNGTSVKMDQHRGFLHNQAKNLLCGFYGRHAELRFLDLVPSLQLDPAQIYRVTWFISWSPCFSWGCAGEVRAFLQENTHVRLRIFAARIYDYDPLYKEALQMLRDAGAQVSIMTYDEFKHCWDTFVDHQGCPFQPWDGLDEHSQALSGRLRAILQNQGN
Cytochrome P450 2C9, sequence (P11712 whole entry): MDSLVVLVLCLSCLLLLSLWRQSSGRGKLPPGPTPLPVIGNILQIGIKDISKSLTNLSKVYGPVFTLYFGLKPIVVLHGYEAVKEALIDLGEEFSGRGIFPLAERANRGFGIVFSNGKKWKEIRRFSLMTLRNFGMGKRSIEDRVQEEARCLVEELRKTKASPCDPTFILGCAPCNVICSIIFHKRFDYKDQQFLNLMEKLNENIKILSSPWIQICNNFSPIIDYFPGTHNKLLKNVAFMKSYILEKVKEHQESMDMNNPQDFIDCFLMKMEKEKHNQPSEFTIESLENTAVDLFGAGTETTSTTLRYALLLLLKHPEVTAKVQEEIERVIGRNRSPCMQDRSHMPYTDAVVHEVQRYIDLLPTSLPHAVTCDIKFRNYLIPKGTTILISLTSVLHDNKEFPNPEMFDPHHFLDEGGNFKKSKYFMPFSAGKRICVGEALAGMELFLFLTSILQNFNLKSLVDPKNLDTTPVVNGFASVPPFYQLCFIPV
Induced myeloid leukemia cell differentiation protein Mcl-1, sequence (Q07820 whole entry): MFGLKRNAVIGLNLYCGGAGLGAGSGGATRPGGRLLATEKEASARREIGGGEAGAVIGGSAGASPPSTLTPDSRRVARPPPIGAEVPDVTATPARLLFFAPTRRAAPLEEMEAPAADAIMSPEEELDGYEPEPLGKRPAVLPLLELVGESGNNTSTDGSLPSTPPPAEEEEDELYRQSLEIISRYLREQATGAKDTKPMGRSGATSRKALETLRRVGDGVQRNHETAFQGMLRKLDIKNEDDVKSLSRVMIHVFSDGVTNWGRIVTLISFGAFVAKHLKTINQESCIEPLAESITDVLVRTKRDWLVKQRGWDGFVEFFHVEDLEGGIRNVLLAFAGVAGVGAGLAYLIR
Glyceraldehyde-3-phosphate dehydrogenase, sequence (P04406 whole entry): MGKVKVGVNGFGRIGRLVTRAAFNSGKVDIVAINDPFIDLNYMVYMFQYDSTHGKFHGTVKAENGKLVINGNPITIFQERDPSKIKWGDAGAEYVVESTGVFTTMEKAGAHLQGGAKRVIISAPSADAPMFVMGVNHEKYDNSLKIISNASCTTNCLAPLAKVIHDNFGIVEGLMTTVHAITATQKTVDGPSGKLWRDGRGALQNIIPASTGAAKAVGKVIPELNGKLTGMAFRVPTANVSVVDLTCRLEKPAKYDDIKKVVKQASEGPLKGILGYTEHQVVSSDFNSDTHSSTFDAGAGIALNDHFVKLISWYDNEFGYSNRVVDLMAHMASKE
Luciferin 4-monooxygenase, sequence (P08659 whole entry): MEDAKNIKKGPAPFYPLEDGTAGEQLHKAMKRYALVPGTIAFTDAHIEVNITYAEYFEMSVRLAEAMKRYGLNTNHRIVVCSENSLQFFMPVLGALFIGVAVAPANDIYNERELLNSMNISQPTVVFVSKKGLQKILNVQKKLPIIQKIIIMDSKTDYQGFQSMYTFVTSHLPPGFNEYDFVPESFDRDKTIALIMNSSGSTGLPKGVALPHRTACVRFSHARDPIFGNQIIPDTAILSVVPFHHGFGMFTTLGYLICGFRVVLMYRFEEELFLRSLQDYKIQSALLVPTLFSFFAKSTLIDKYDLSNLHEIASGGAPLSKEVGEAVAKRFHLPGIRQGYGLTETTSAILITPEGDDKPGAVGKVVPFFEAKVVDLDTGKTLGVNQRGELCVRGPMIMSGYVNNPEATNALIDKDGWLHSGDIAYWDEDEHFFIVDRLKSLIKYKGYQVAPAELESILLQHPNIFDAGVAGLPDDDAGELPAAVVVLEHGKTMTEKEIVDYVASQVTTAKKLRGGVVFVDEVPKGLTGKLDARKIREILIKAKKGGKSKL

O=C(c1ccccc1)n1nnc2ccccc21
IC50 (Prothrombin): 0.431 µM (active)

CC1=C(C(=O)Nc2ccccc2)C(c2ccc(O)cc2)N2C(=O)CSC2=N1 (stereo unspecified)
IC50 (Prothrombin): 25.2 µM (active)

COc1ccccc1C(=O)NC(=S)N1CCCc2ccccc21
EC50 [1]: 16.2 µM (active) | AC50 (Cytochrome P450 2C9): inconclusive | EC50 [2]: 29.9 µM (active) | EC50 [3]: 9.63 µM (active) | EC50 (H4): 31.6 µM (active)

O=C1C(Cl)=C(N2CCN(Cc3ccc4c(c3)OCO4)CC2)C(=O)N1c1ccc(C(F)(F)F)cc1
IC50 [4]: > 50 µM (inconclusive)

CCN1C(NCCOC)=N[C@@H](c2cccs2)C(C(=O)OC)=C1C
IC50 [5]: 4.37 µM (active) | IC50 [6]: 8.01 µM (active)

COC(=O)C1=C(C)N(Cc2ccccc2)C(NCCCCO)=N[C@H]1c1cccc(C(F)(F)F)c1
IC50 [5]: 4.94 µM (active) | IC50 [6]: 7.1 µM (active)

COc1ccccc1OC(C)C(=O)N1CCN(Cc2ccc3c(c2)OCO3)CC1 (stereo unspecified)
IC50 [5]: 7.43 µM (active) | IC50 [6]: 8.33 µM (active)

COc1ccc(NC(=S)c2ccc3ccccc3n2)cc1
IC50 [7]: 66.5 µM (active)

CN(Cc1ccccc1)CC(O)COc1ccc(CNCCCOc2cccnc2)cc1 (stereo unspecified)
EC50 [8]: > 50 µM (active)

CCN(c1ccc(NC(=O)COC(=O)/C=C/c2cccs2)cc1)C(C)C
IC50 [9]: 3.34 µM (active)

O=C1CCCC(O)=C1Sc1ccccc1C(=O)O
IC50 [5]: 13.3 µM (active) | IC50 [6]: 43.8 µM (active)

CC(C)c1ccc2oc(=O)cc(CN3CCN(c4ccc(F)cc4)CC3)c2c1
EC50 [8]: > 50 µM (active)

Cc1ccc(S(=O)(=O)N2CCN(C(=O)C3COc4ccccc4O3)CC2)cc1C (stereo unspecified)
AC50 (Cytochrome P450 2C9): inconclusive

O=C(O)/C(=C\c1cccc([N+](=O)[O-])c1)c1ccc(S(=O)(=O)N2CCCCC2)s1
AC50 (Caspase-6): 13.9 µM (active) | IC50 [10]: 9.53 µM (active)

Cn1cnc(C(=O)N2CCN(c3ccccc3)CC2)c1C(=O)N1CCN(c2ccccc2)CC1
IC50 [5]: 2.75 µM (active) | IC50 [10]: 7.05 µM (active) | IC50 [6]: 6.53 µM (active)

CC(=O)c1c(C)[nH]c(C(=O)CSc2nnc(-c3ccc(Cl)cc3)n2CC2CCCO2)c1C (stereo unspecified)
EC50 [11]: > 112 µM (not active) | EC50 [8]: > 50 µM (active) | EC50 [12]: > 112 µM (not active)

Cc1cc2ncn(C(=O)c3ccc4c(c3)OCO4)c2cc1C
IC50 (Prothrombin): 5.76 µM (active)

Cc1ccc(-n2c(C)c([N+](=O)[O-])c3ccc(O)c(CN(C)C)c32)cc1
AC50 (HEK293): 8.54 µM (active)
